Source: patent US10577363B2, “Substituted piperidine compounds” (EPIZYME, INC., priority 2014, dated 2020)

What was measured:
[1] = target: T1, SMYD3 (Homo sapiens (Human), UniProt Q9H7B4); experiment: SMYD3 cell assay (Trimethyl-MEKK2 In-Cell Western in 293T/17 cells); type: cell-based; settings: read-out: SMYD3 Cell IC50*
Method in brief: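 In-Cell Western ratio of trimethyl-Lys260 MEKK2 to anti-flag signal; percent inhibition from DMSO and maximum-inhibition controls, IC50 by non-linear regression, triplicates.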

[2] = target: T1, SMYD3; experiment: SMYD3 biochemical assay (SPA, 3H-SAM methylation of MEKK2 protein substrate); settings: read-out: SMYD3 Biochem IC50*
Method in brief: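 Tritium incorporation into GST-MEKK2 is counted by scintillation proximity after citric acid bead capture. Native human SMYD3 is preincubated with test compound for 30 min at room temperature at pH 8.0 (Tris-Cl, TCEP, BSG, Tween 20) before 3H-SAM and substrate are added; cold SAM at 100 uM final stops turnover.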

T1 sequence (Q9H7B4 whole entry): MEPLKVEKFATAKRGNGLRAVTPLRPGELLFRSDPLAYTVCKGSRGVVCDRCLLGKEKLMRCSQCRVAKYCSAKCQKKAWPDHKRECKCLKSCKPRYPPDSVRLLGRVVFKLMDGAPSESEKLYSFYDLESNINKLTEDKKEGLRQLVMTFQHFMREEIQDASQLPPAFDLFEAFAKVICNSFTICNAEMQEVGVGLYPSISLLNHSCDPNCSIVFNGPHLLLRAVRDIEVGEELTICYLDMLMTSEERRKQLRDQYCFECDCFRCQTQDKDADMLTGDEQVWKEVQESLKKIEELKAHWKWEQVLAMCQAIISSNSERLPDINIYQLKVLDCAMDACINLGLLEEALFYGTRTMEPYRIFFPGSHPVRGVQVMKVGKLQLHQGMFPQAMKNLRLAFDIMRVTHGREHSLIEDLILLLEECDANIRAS

Row | Compound | IC50 [1] | IC50 [2]
1 | O=C(N[C@H]1C[C@H]2CC[C@@H](C1)N2S(=O)(=O)N1CCNCC1c1ccccc1)c1cc(C2CC2)on1 (stereo partly drawn) [compound 939, 5-cyclopropyl-N-((1R,3r,5S)-8-((2-phenylpiperazin-1-yl)sulfonyl)-8-azabicyclo[3.2.1]octan-3-yl)isoxazole-3-carboxamide] | 361 nM | 44.7 nM
2 | CC1CN(S(=O)(=O)N2[C@@H]3CC[C@H]2C[C@@H](NC(=O)c2cc(C4CC4)on2)C3)C(C)CN1C (stereo partly drawn) [compound 941, 5-cyclopropyl-N-((1R,3r,5S)-8-((2,4,5-trimethylpiperazin-1-yl)sulfonyl)-8-azabicyclo[3.2.1]octan-3-yl)isoxazole-3-carboxamide] | 341 nM | 47.9 nM
3 | O=C(N[C@H]1C[C@H]2CC[C@@H](C1)N2S(=O)(=O)NC1CCN[C@H](Cc2ccccc2)C1)c1cc(C2CC2)on1 (stereo partly drawn) [compound 942, N-((1R,3R,5S)-8-(N-((2R)-2-benzylpiperidin-4-yl)sulfamoyl)-8-azabicyclo[3.2.1]octan-3-yl)-5-cyclopropylisoxazole-3-carboxamide] | 659 nM | 48.1 nM
4 | C[C@H](NC1CCN(S(=O)(=O)N2[C@@H]3CC[C@H]2C[C@@H](NC(=O)c2cc(C4CC4)on2)C3)CC1)c1ccc(F)cc1 [compound 943, 5-cyclopropyl-N-((1R,3S,5S)-8-((4-(((S)-1-(4-fluorophenyl)ethyl)amino)piperidin-1-yl)sulfonyl)-8-azabicyclo[3.2.1]octan-3-yl)isoxazole-3-carboxamide] | 602 nM | 48.1 nM
5 | C[C@@H](NC1CCN(S(=O)(=O)N2[C@@H]3CC[C@H]2C[C@@H](NC(=O)c2cc(C4CC4)on2)C3)CC1)c1ccc(F)cc1 [compound 944, 5-cyclopropyl-N-((1R,3R,5S)-8-((4-(((R)-1-(4-fluorophenyl)ethyl)amino)piperidin-1-yl)sulfonyl)-8-azabicyclo[3.2.1]octan-3-yl)isoxazole-3-carboxamide] | 683 nM | 48.9 nM
6 | O=C(N[C@H]1C[C@H]2CC[C@@H](C1)N2S(=O)(=O)N(Cc1ccccc1)C1CCNCC1)c1cc(C2CC2)on1 [compound 945, N-((1R,3r,5S)-8-(N-benzyl-N-(piperidin-4-yl)sulfamoyl)-8-azabicyclo[3.2.1]octan-3-yl)-5-cyclopropylisoxazole-3-carboxamide] | 223 nM | 50.6 nM
7 | O=C(N[C@H]1C[C@H]2CC[C@@H](C1)N2S(=O)(=O)c1ccc(CNCCO)cc1)c1cc(C2CC2)on1 [compound 946, 5-cyclopropyl-N-((1R,3r,5S)-8-((4-(((2-hydroxyethyl)amino)methyl)phenyl)sulfonyl)-8-azabicyclo[3.2.1]octan-3-yl)isoxazole-3-carboxamide] | 332 nM | 51 nM
8 | O=C(N[C@H]1C[C@H]2CC[C@@H](C1)N2S(=O)(=O)N1CCC(NCCN2CCOCC2)CC1)c1cc(C2CC2)on1 [compound 947, 5-cyclopropyl-N-((1R,3r,5S)-8-((4-((2-morpholinoethyl)amino)piperidin-1-yl)sulfonyl)-8-azabicyclo[3.2.1]octan-3-yl)isoxazole-3-carboxamide] | 338 nM | 52.3 nM
9 | O=C(N[C@H]1C[C@H]2CC[C@@H](C1)N2S(=O)(=O)NC1CCN(Cc2ccccc2)CC1)c1cc(C2CC2)on1 [compound 948, N-((1R,3r,5S)-8-(N-(1-benzylpiperidin-4-yl)sulfamoyl)-8-azabicyclo[3.2.1]octan-3-yl)-5-cyclopropylisoxazole-3-carboxamide] | 411 nM | 52.4 nM
10 | O=C(N[C@H]1CCN(S(=O)(=O)NC2CCNCC2)[C@@H](Cc2ccccc2)C1)c1cc(C2CC2)on1 [compound 949, N-((2S,4S)-2-benzyl-1-(N-(piperidin-4-yl)sulfamoyl)piperidin-4-yl)-5-cyclopropylisoxazole-3-carboxamide] | 1510 nM | 52.7 nM
11 | CC1CN(C)CCN1S(=O)(=O)N1[C@@H]2CC[C@H]1C[C@@H](NC(=O)c1cc(C3CC3)on1)C2 (stereo partly drawn) [compound 950, 5-cyclopropyl-N-((1R,3r,5S)-8-((2,4-dimethylpiperazin-1-yl)sulfonyl)-8-azabicyclo[3.2.1]octan-3-yl)isoxazole-3-carboxamide] | 390 nM | 52.9 nM
12 | CN(C1CCCNC1)S(=O)(=O)N1[C@@H]2CC[C@H]1C[C@@H](NC(=O)c1cc(C3CC3)on1)C2 (stereo partly drawn) [compound 951, 5-cyclopropyl-N-((1R,3r,5S)-8-(N-methyl-N-(piperidin-3-yl)sulfamoyl)-8-azabicyclo[3.2.1]octan-3-yl)isoxazole-3-carboxamide] | 395 nM | 54.1 nM
13 | CN1CCC[C@H](S(=O)(=O)N2[C@@H]3CC[C@H]2C[C@@H](NC(=O)c2cc(C4CC4)on2)C3)C1 [compound 952, 5-cyclopropyl-N-((1R,3S,5S)-8-(((S)-1-methylpiperidin-3-yl)sulfonyl)-8-azabicyclo[3.2.1]octan-3-yl)isoxazole-3-carboxamide] | 281 nM | 56.2 nM
14 | O=C(N[C@H]1C[C@H]2CC[C@@H](C1)N2S(=O)(=O)c1ccc(CN2CCCC2)cc1)c1cc(C2CC2)on1 [compound 953, 5-cyclopropyl-N-((1R,3r,5S)-8-((4-(pyrrolidin-1-ylmethyl)phenyl)sulfonyl)-8-azabicyclo[3.2.1]octan-3-yl)isoxazole-3-carboxamide] | 585 nM | 57 nM
15 | CC[C@H]1C[C@@H](NC(=O)c2cc(C3CC3)on2)CCN1S(=O)(=O)CC1CCN(C)CC1 [compound 954, 5-cyclopropyl-N-((2S,4S)-2-ethyl-1-(((1-methylpiperidin-4-yl)methyl)sulfonyl)piperidin-4-yl)isoxazole-3-carboxamide] | 583 nM | 57.9 nM
16 | COCCN1C2CCC1CN(S(=O)(=O)N1[C@@H]3CC[C@H]1C[C@@H](NC(=O)c1cc(C4CC4)on1)C3)C2 [compound 955, 5-cyclopropyl-N-((1R,3r,5S)-8-((8-(2-methoxyethyl)-3,8-diazabicyclo[3.2.1]octan-3-yl)sulfonyl)-8-azabicyclo[3.2.1]octan-3-yl)isoxazole-3-carboxamide] | 373 nM | 59.2 nM
17 | O=C(N[C@H]1C[C@H]2CC[C@@H](C1)N2S(=O)(=O)C[C@H]1CCCN1)c1cc(C2CC2)on1 [compound 956, 5-cyclopropyl-N-((1R,3R,5S)-8-((((R)-pyrrolidin-2-yl)methyl)sulfonyl)-8-azabicyclo[3.2.1]octan-3-yl)isoxazole-3-carboxamide] | 733 nM | 59.6 nM
18 | C[C@H]1CN(S(=O)(=O)[C@H]2CC[C@@H](N(C)C)CC2)CC[C@H]1NC(=O)c1cc(C2CC2)on1 [compound 957, 5-cyclopropyl-N-((3S,4R)-1-(((1s,4R)-4-(dimethylamino)cyclohexyl)sulfonyl)-3-methylpiperidin-4-yl)isoxazole-3-carboxamide] | 512 nM | 69 nM
19 | O=C(N[C@H]1C[C@H]2CC[C@@H](C1)N2S(=O)(=O)N1CCC(Nc2ncccn2)CC1)c1cc(C2CC2)on1 [compound 958, 5-cyclopropyl-N-((1R,3r,5S)-8-((4-(pyrimidin-2-ylamino)piperidin-1-yl)sulfonyl)-8-azabicyclo[3.2.1]octan-3-yl)isoxazole-3-carboxamide] | 486 nM | 76.7 nM
20 | NCCc1ccc(S(=O)(=O)N2[C@@H]3CC[C@H]2C[C@@H](NC(=O)c2cc(C4CC4)on2)C3)cc1 [compound 959, N-((1R,3r,5S)-8-((4-(2-aminoethyl)phenyl)sulfonyl)-8-azabicyclo[3.2.1]octan-3-yl)-5-cyclopropylisoxazole-3-carboxamide] | ≥ 10000 nM | 79.7 nM
21 | C[C@H]1C[C@@H](NC(=O)c2cc(C3CC3)on2)CCN1S(=O)(=O)N1CCNC[C@H]1c1ccccc1 [compound 960, 5-cyclopropyl-N-((2S,4S)-2-methyl-1-(((R)-2-phenylpiperazin-1-yl)sulfonyl)piperidin-4-yl)isoxazole-3-carboxamide] | 1350 nM | 80.6 nM
22 | CN(CCC(F)(F)F)C1CCN(S(=O)(=O)N2[C@@H]3CC[C@H]2C[C@@H](NC(=O)c2cc(C4CC4)on2)C3)CC1 [compound 961, 5-cyclopropyl-N-((1R,3r,5S)-8-((4-(methyl(3,3,3-trifluoropropyl)amino)piperidin-1-yl)sulfonyl)-8-azabicyclo[3.2.1]octan-3-yl)isoxazole-3-carboxamide] | 364 nM | 81.6 nM
23 | CNC(C)(C)c1ccc(S(=O)(=O)N2[C@@H]3CC[C@H]2C[C@@H](NC(=O)c2cc(C4CC4)on2)C3)cc1 [compound 962, 5-cyclopropyl-N-((1R,3r,5S)-8-((4-(2-(methylamino)propan-2-yl)phenyl)sulfonyl)-8-azabicyclo[3.2.1]octan-3-yl)isoxazole-3-carboxamide] | 695 nM | 81.8 nM
24 | CCC1CN(C)CCN1S(=O)(=O)N1[C@@H]2CC[C@H]1C[C@@H](NC(=O)c1cc(C3CC3)on1)C2 (stereo partly drawn) [compound 963, 5-cyclopropyl-N-((1R,3r,5S)-8-((2-ethyl-4-methylpiperazin-1-yl)sulfonyl)-8-azabicyclo[3.2.1]octan-3-yl)isoxazole-3-carboxamide] | 690 nM | 82.9 nM
25 | CN1CCCC[C@@H]1CS(=O)(=O)N1[C@@H]2CC[C@H]1C[C@@H](NC(=O)c1cc(C3CC3)on1)C2 [compound 964, 5-cyclopropyl-N-((1R,3R,5S)-8-((((R)-1-methylpiperidin-2-yl)methyl)sulfonyl)-8-azabicyclo[3.2.1]octan-3-yl)isoxazole-3-carboxamide] | 450 nM | 83 nM
26 | CCCc1cc(C(=O)N[C@H]2C[C@H]3CC[C@@H](C2)N3S(=O)(=O)CC2CCN(C)CC2)no1 [compound 965, N-((1R,3r,5S)-8-(((1-methylpiperidin-4-yl)methyl)sulfonyl)-8-azabicyclo[3.2.1]octan-3-yl)-5-propylisoxazole-3-carboxamide] | 1310 nM | 85.3 nM
